# Reference: patent US20220143003A1, “COMPOSITIONS AND METHODS TO TREAT NON-ALCOHOLIC FATTY LIVER DISEASES (NAFLD)” (Coherus Biosciences, Inc., priority 2018, published 2022)
# Experiments:
# Type in all cases: in vivo, male C57BL/6JRj mice
# DIO-NASH mice [1] = experiment: EchoMRI body composition (MRI body weight, fat, lean and free water mass); settings: for Absolute fat tissue mass at week 11 / Absolute free water mass at week 11 / MRI body weight at week 11 / Relative fat tissue mass at week 11 / Relative lean tissue mass at week 11 / Relative free water mass (% of body weight): group mean, week 11
# Method: The body composition of the mice was assessed by an EchoMRI 3-1 Body composition analyzer (EchoMRI, US). Non-anaesthetised mice was placed in a plastic tube inside the MRI scanner for approximately 80 seconds. The body composition is expressed as fat mass, fat free mass (lean mass) and water.
# DIO-NASH mice [2] = experiment: 4 h fasted blood glucose; settings: group mean
# DIO-NASH mice [3] = experiment: Fibrosis stage, Sirius red histopathological scoring of pre- and post-biopsies; settings: post- vs pre-study biopsy, trend, p=0.07
# Method: Three weeks prior to study start, a pre-biopsy was performed to confirm NASH and for study inclusion of NASH-affected mice only. Briefly, mice were anesthetized with isoflurane (2-3%) in 100% oxygen. A small abdominal incision was made in the midline and the left lateral lobe of the liver exposed. A cone shaped wedge of liver tissue (approximately 50 mg) was excised from the distal portion of the lobe and fixated in 10% neutral buffered formalin (4% formaldehyde) for histopathological analyses. The cut surface of the liver was instantly electro-coagulated using bipolar coagulation (ERBE VIO 100 electrosurgical unit). The liver was returned to the abdominal cavity, the abdominal wall sutured, and the skin closed with staplers. For post-operative recovery, mice received carprofen (5 mg/ml-0.01 ml/10 g) administered subcutaneously on the day of operation and on post-operation day 1 and 2. For Sirius red staining, slides were incubated in Weigert's iron hematoxylin, washed in tap water, stained in Picro-Sirius red and washed twice in acidified water. […] For scoring of NAFLD Activity Score (NAS) and fibrosis stage, HE and Sirius red stained liver sections, respectively, were scored by a histopathology specialist as outlined in Table 10 using the clinical criteria outlined by Kleiner et al. (2005). […] Fibrosis stage is evaluated separately from NAS.
# DIO-NASH mice [4] = experiment: Liver total cholesterol (TC) at termination; settings: group mean
# Method: The liver post-biopsy for histological analyses was removed by dissection from the left lateral lobe, fixated in 4% formalin for 20-24 h, and subsequently embedded in paraffin. Liver biopsies for liver triglycerides and total cholesterol were dissected from the medial lobe, snap frozen in liquid nitrogen, and stored at −80° C., while liver biopsies for hydroxyproline were dissected from the caudal lobe (the entire lobe), snap frozen in liquid nitrogen and stored at −80° C. Finally, a liver sample for RNA isolation and gene expression analysis was dissected from the left lateral lobe, snap frozen in liquid nitrogen, and stored at −80° C. until processing.
# For liver TG and TC quantification, samples were homogenized, and TG and TC extracted in 5% NP-40 by heating twice to 90° C. The samples were centrifuged, and the TG and TC content measured in the supernatant, using commercial kits (Roche Diagnostics) on the Cobas c501 autoanalyzer according to the manufacturer's instructions.
# Relative (mg/g of liver) liver total cholesterol (TC) at termination. Values expressed as mean of n=12-14+SEM.
# Total (mg/liver) liver total cholesterol (TC) at termination. Values expressed as mean of […]+SEM.
# [5] = DIO-NASH mice, compared to DIO mice administered vehicle only
# [6] = DIO-NASH mice, CHS-131 High 30 mg/kg, empagliflozin 10 mg/kg, elafibranor 30 mg/kg PO, liraglutide 0.4 mg/kg SC, QD
# [7] = DIO-NASH mice, CHS-131 Low 10 mg/kg PO QD
# [8] = CHS-131 High dose (alone or combined)
# [9] = at baseline, CHS-131 High dose (alone or combined)
# [10] = week 12, CHS-131 High dose (alone or combined)
SMILES,Absolute fat tissue mass at week 11 (DIO-NASH mice [1]; [6]) [g],Absolute free water mass at week 11 (DIO-NASH mice [1]; [6]) [g],MRI body weight at week 11 (DIO-NASH mice [1]; [6]) [g],Relative fat tissue mass at week 11 (DIO-NASH mice [1]; [6]),Relative lean tissue mass at week 11 (DIO-NASH mice [1]; [6]),Relative free water mass (% of body weight) (DIO-NASH mice [1]; [8]),4 h fasted blood glucose (DIO-NASH mice [2]; [9]) [mmol/L],4 h fasted blood glucose (DIO-NASH mice [2]; [10]) [mmol/L],Delta 4 h fasted blood glucose week 12 vs baseline (DIO-NASH mice [2]; [8]) [mmol/L],Relative liver total cholesterol (TC) at termination (DIO-NASH mice [4]; [8]),Total liver total cholesterol (TC) at termination (DIO-NASH mice [4]; [8]) [mg/liver],further results
O=S(=O)(Nc1cc(Cl)c(Oc2cnc3ccccc3c2)c(Cl)c1)c1ccc(Cl)cc1Cl [CHS-131],6.9,0.0946,38.2,17.8 % of body weight,48.1 % of body weight,0.249 % of body weight,7.68,7.01,-0.675,12.3 mg/g of liver,39.2,"Fat tissue mass (fat mass), effect in words (DIO-NASH mice [1]; [5]): reduced significantly; Free water mass, effect in words (DIO-NASH mice [1]; [5]): remained stable; Relative fat tissue mass, effect in words (DIO-NASH mice [1]; [5]): reduced; Reduction of % fat mass as % of baseline body weight (DIO-NASH mice [1]; DIO-NASH mice, compared to vehicle alone, CHS-131 dose not stated): 20%; Absolute fat tissue mass at week 11 (DIO-NASH mice [1]; [7]): 7.07 g; Absolute free water mass at week 11 (DIO-NASH mice [1]; [7]): 0.165 g; MRI body weight at week 11 (DIO-NASH mice [1]; [7]): 38.3 g; Relative fat tissue mass at week 11 (DIO-NASH mice [1]; [7]): 18.4 % of body weight; Relative lean tissue mass at week 11 (DIO-NASH mice [1]; [7]): 48.5 % of body weight; Relative free water mass (% of body weight) (DIO-NASH mice [1]; CHS-131 Low dose): 0.429 % of body weight; 4 h fasted blood glucose (DIO-NASH mice [2]; at baseline, CHS-131 Low dose): 8.09 mmol/L; 4 h fasted blood glucose (DIO-NASH mice [2]; week 12, CHS-131 Low dose): 7.31 mmol/L; Delta 4 h fasted blood glucose week 12 vs baseline (DIO-NASH mice [2]; CHS-131 Low dose): -0.787 mmol/L; Fibrosis stage: mice with improvement (DIO-NASH mice [3]): 5/13; Relative liver total cholesterol (TC) at termination (DIO-NASH mice [4]; CHS-131 Low dose): 12.4 mg/g of liver; Total liver total cholesterol (TC) at termination (DIO-NASH mice [4]; CHS-131 Low dose): 39.6 mg/liver"
"CSc1ccc(C(=O)/C=C/c2cc(C)c(OC(C)(C)C(=O)O)c(C)c2)cc1 [Elafibranor, reference compound]",3.73,0.0923,32.5,11.3 % of body weight,52.6 % of body weight,0.292 % of body weight,7.68,6.41,-1.27,8.87 mg/g of liver,38.3,–
"OC[C@H]1O[C@@H](c2ccc(Cl)c(Cc3ccc(O[C@H]4CCOC4)cc3)c2)[C@H](O)[C@@H](O)[C@@H]1O [Empagliflozin, reference compound]",7.81,0.182,40.1,19.4 % of body weight,47.1 % of body weight,0.458 % of body weight,7.71,6.69,-1.03,12.6 mg/g of liver,43.2,–
